Measured values as given in patent US8609650B2, “Bridged bicyclic aryl and bridged bicyclic heteroaryl substituted triazoles useful as Axl inhibitors” (Rigel Pharmaceuticals, Inc., priority 2006, dated 2013).

Biological target: T1, Axl (Homo sapiens, UniProt P30530)
T1 construct: endogenous in cells; host or cells: HeLa cells
T1 sequence (P30530 26-894): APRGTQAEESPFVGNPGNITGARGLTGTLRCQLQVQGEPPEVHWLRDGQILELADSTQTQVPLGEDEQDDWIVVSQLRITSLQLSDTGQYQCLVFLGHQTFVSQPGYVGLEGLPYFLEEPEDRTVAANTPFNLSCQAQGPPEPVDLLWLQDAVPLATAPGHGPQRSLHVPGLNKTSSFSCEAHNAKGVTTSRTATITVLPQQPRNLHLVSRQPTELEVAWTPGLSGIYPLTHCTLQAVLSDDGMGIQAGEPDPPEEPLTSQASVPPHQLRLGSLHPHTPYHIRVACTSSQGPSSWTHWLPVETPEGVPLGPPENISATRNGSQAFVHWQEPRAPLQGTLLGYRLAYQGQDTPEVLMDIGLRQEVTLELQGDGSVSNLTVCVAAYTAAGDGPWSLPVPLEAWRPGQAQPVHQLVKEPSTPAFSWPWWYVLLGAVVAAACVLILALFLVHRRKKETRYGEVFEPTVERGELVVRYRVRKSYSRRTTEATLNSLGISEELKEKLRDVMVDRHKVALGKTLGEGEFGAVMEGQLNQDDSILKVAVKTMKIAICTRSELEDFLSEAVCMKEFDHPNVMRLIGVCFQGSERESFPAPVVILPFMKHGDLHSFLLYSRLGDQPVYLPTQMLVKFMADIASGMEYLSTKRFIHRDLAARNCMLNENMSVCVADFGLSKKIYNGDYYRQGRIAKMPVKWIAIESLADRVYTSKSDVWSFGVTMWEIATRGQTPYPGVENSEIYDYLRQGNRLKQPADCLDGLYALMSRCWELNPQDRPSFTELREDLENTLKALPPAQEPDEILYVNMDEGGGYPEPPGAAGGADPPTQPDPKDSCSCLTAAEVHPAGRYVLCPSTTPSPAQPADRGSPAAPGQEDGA
Assay: Phospho-Akt In-Cell Western Assay (ability to inhibit Axl activity)
Format: cell-based
Details: Hela cells, stimulated by Axl-antibody cross-linking, phospho-Akt chemiluminescence normalized to relative cell number
Method in brief: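 HeLa cells starved 24 h in 0.5% FCS with Axl/Fc 500 ng/mL, pre-treated 1 h at 37° C with compound, then stimulated 5 min by anti-Axl antibody cross-linking. Fixed cells probed for phospho-Akt with HRP secondary; chemiluminescence read.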

| Compound | IC50 [nM] |
| --- | --- |
| CC1(C)[C@H]2Cc3ccc(-n4nc(Nc5ccc(N6CCN(C7CC8CCC7C8)CC6)c(F)c5)nc4N)nc3[C@@H]1C2 (stereo partly drawn) [Compound 39, 1-(7,7-dimethyl-(6R,8R)6,8-methano-5,6,7,8-tetrahydroquinoline-2-yl)-N^3-(3-fluoro-4-(4-bicyclo[2.2.1]heptan-2-ylpiperazin-1-yl)phenyl)-1H-1,2,4-triazole-3,5-diamine] | > 20000 |
| Nc1nc(Nc2ccc(N3CCC(N4CCCC4)CC3)c(F)c2)nn1-c1cc(-c2ccccc2)c2c(n1)C1CCN2CC1 [Compound 25, 1-(1,4-ethano-8-phenyl-1,2,3,4-tetrahydro-1,5-naphthyridin-6-yl)-N^3-(3-fluoro-4-(4-(pyrrolidin-1-yl)piperidin-1-yl)phenyl)-1H-1,2,4-triazole-3,5-diamine] | < 1000 |
| 1-(5,8-dimethylmethano-8-methyl-5,6,7-trihydroquinazolin-2-yl)-N^3-(3-fluoro-4-(4-(pyrrolidin-1-yl)piperidin-1-yl)phenyl)-1H-1,2,4-triazole-3,5-diamine [Compound 21] | < 1000 |
| Cc1cc(Nc2nc(N)n(-c3cc(-c4ccccc4)c4c(n3)C3CCN4CC3)n2)ccc1N1CCC(N2CCCC2)CC1 [Compound 68, 1-(1,4-ethano-8-phenyl-1,2,3,4-tetrahydro-1,5-naphthyridin-6-yl)-N^3-(3-methyl-4-(4-(pyrrolidin-1-yl)piperidin-1-yl)phenyl)-1H-1,2,4-triazole-3,5-diamine] | < 1000 |
| Nc1nc(Nc2ccc(OCCN3CCCC3)cc2)nn1-c1ncnc2c1C1CCC2C1 (stereo not shown) [Compound 19, 1-(5,8-methano-5,6,7,8-tetrahydroquinazolin-4-yl)-N^3-(4-(2-(pyrrolidin-1-yl)ethoxy)phenyl)-1H-1,2,4-triazole-3,5-diamine] | < 1000 |
| Nc1nc(Nc2ccc(N3CCC(N4CCCC4)CC3)c(F)c2)nn1-c1cc(-c2cccs2)c2c(n1)C1CCC2C1 (stereo not shown) [Compound 53, 1-(5,8-methano-4-thiophen-2-yl-5,6,7,8-tetrahydroquinoline-2-yl)-N^3-(3-fluoro-4-(4-(pyrrolidin-1-yl)piperidin-1-yl)phenyl)-1H-1,2,4-triazole-3,5-diamine] | < 1000 |
| Nc1nc(Nc2ccc(N3CCC(N4CCCC4)CC3)nc2)nn1-c1cc(-c2ccccc2)c2c(n1)C1CCN2CC1 [Compound 29, 1-(1,4-ethano-8-phenyl-1,2,3,4-tetrahydro-1,5-naphthyridin-6-yl)-N^3-(2-(4-(pyrrolidin-1-yl)piperidin-1-yl)pyridine-5-yl)-1H-1,2,4-triazole-3,5-diamine] | < 1000 |
| CN1CCN(C2CCN(c3ccc(Nc4nc(N)n(-c5cc(-c6cccs6)c6c(n5)C5CCC6C5)n4)cc3F)CC2)CC1 (stereo not shown) [Compound 47, 1-(5,8-methano-4-thiophen-2-yl-5,6,7,8-tetrahydroquinoline-2-yl)-N^3-(3-fluoro-4-(4-(4-methylpiperazin-1-yl)piperidin-1-yl)phenyl)-1H-1,2,4-triazole-3,5-diamine] | < 1000 |
| CN1CCN(c2ccc(Nc3nc(N)n(-c4cc(-c5ccccc5)c5c(n4)C4CCC5C4)n3)cc2)CC1 (stereo not shown) [Compound 45, 1-(5,8-methano-4-phenyl-5,6,7,8-tetrahydroquinoline-2-yl)-N^3-(4-(4-methylpiperazin-1-yl)phenyl)-1H-1,2,4-triazole-3,5-diamine] | < 1000 |
| Nc1nc(Nc2ccc(N3CCN(C4CCCCCC4)CC3)cc2)nn1-c1ncc2c(n1)C1CCC2C1 (stereo not shown) [Compound 10, N^3-(4-(4-cycloheptylpiperazin-1-yl)phenyl)-1-(5,8-methano-5,6,7,8-tetrahydroquinazolin-2-yl)-1H-1,2,4-triazole-3,5-diamine] | < 1000 |
| Nc1nc(Nc2ccc3c(c2)CCC(N2CCC(N4CCCC4)CC2)CC3)nn1-c1cc(-c2ccccc2)c2c(n1)C1CCN2CC1 (stereo not shown) [Compound 71, 1-(1,4-ethano-8-phenyl-1,2,3,4-tetrahydro-1,5-naphthyridin-6-yl)-N^3-(7-(4-pyrrolidin-1-ylpiperidin-1-yl)-6,7,8,9-tetrahydro-5H-benzo[7]annulene-3-yl)-1H-1,2,4-triazole-3,5-diamine] | < 1000 |
| Nc1nc(Nc2ccc(N3CCN(C4CCCCC4)CC3)c(F)c2)nn1-c1cc(-c2ccccc2)c2c(n1)C1CCN2CC1 [Compound 37, 1-(1,4-ethano-8-phenyl-1,2,3,4-tetrahydro-1,5-naphthyridin-6-yl)-N^3-(3-fluoro-4-(4-cyclohexylpiperazin-1-yl)phenyl)-1H-1,2,4-triazole-3,5-diamine] | < 1000 |
| Nc1nc(Nc2ccc3c(c2)CCC(N2CCCC2)CC3)nn1-c1cc(-c2ccccc2)c2c(n1)C1CCN2CC1 (stereo not shown) [Compound 72, 1-(1,4-ethano-8-phenyl-1,2,3,4-tetrahydro-1,5-naphthyridin-6-yl)-N^3-(7-pyrrolidin-1-yl-6,7,8,9-tetrahydro-5H-benzo[7]annulene-3-yl)-1H-1,2,4-triazole-3,5-diamine] | < 1000 |
| Nc1nc(Nc2ccc(N3CCN(C4CC5CCC4C5)CC3)c(F)c2)nn1-c1cc(-c2ccccc2)c2c(n1)C1CCN2CC1 (stereo not shown) [Compound 36, 1-(1,4-ethano-8-phenyl-1,2,3,4-tetrahydro-1,5-naphthyridin-6-yl)-N^3-(3-fluoro-4-(4-bicyclo[2.2.1]heptan-2-ylpiperazin-1-yl)phenyl)-1H-1,2,4-triazole-3,5-diamine] | < 1000 |
| CN1CCN(c2ccc(Nc3nc(N)n(-c4cc(-c5ccccc5)c5c(n4)C4CCN5CC4)n3)cn2)CC1 [Compound 28, 1-(1,4-ethano-8-phenyl-1,2,3,4-tetrahydro-1,5-naphthyridin-6-yl)-N^3-(2-(4-methylpiperazin-1-yl)pyridine-5-yl)-1H-1,2,4-triazole-3,5-diamine] | < 1000 |
| Nc1nc(Nc2ccc(N3CCN(C4CC5CCC4C5)CC3)cc2)nn1-c1ncnc2c1C1CCC2C1 (stereo not shown) [Compound 18, 1-(5,8-methano-5,6,7,8-tetrahydroquinazolin-4-yl)-N^3-(4-(4-(bicyclo[2.2.1]heptan-2-yl)piperazin-1-yl)phenyl)-1H-1,2,4-triazole-3,5-diamine] | < 1000 |
| Nc1nc(Nc2ccc(N3CCN(C4CC5CCC4C5)CC3)cc2)nn1-c1ncc2c(n1)C1CCC2C1 (stereo not shown) [Compound 8, N^3-(4-(4-(bicyclo[2.2.1]heptan-2-yl)piperazin-1-yl)phenyl)-1-(5,8-methano-5,6,7,8-tetrahydroquinazolin-2-yl)-1H-1,2,4-triazole-3,5-diamine] | < 1000 |
| Nc1nc(Nc2ccc(OCCN3CCCC3)cc2)nn1-c1ncc2c(n1)C1CCC2C1 (stereo not shown) [Compound 1, 1-(5,8-methano-5,6,7,8-tetrahydroquinazolin-2-yl)-N^3-(4-(2-(pyrrolidin-1-yl)ethoxy)phenyl)-1H-1,2,4-triazole-3,5-diamine] | > 20000 |
| CCOC(=O)CN1CCN(c2ccc(Nc3nc(N)n(-c4cc(-c5ccccc5)c5c(n4)C4CCN5CC4)n3)cc2F)CC1 [Compound 55, 1-(1,4-ethano-8-phenyl-1,2,3,4-tetrahydro-1,5-naphthyridin-6-yl)-N^3-(3-fluoro-4-(4-ethyloxycarbonylmethylpiperazin-1-yl)phenyl)-1H-1,2,4-triazole-3,5-diamine] | < 1000 |
| COC(=O)[C@@H]1CN(c2ccc(Nc3nc(N)n(-c4cc(-c5ccccc5)c5c(n4)C4CCN5CC4)n3)cc2F)CCN1CC1CC1 [Compound 65, 1-(1,4-ethano-8-phenyl-1,2,3,4-tetrahydro-1,5-naphthyridin-6-yl)-N^3-(3-fluoro-4-((3S)-3-methyloxycarbonyl-4-cyclopropylmethylpiperazin-1-yl)phenyl)-1H-1,2,4-triazole-3,5-diamine] | < 1000 |
| CN1CCN(C2CCN(c3ccc(Nc4nc(N)n(-c5cc(-c6ccccc6)c6c(n5)C5CCN6CC5)n4)cc3F)CC2)CC1 [Compound 41, 1-(1,4-ethano-8-phenyl-1,2,3,4-tetrahydro-1,5-naphthyridin-6-yl)-N^3-(3-fluoro-4-(4-(4-methylpiperazin-1-yl)piperidin-1-yl)phenyl)-1H-1,2,4-triazole-3,5-diamine] | < 1000 |
| Nc1nc(Nc2ccc(N3CCN(CC(=O)O)CC3)c(F)c2)nn1-c1cc(-c2ccccc2)c2c(n1)C1CCN2CC1 [Compound 56, 1-(1,4-ethano-8-phenyl-1,2,3,4-tetrahydro-1,5-naphthyridin-6-yl)-N^3-(3-fluoro-4-(4-carboxymethylpiperazin-1-yl)phenyl)-1H-1,2,4-triazole-3,5-diamine] | < 1000 |
